From PubChem BioAssay (NCI)
Where “and” joins values, the source holds several entries; their conditions need not be identical. Equal values may be shown once.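 Interpolation was linear, between the two tested concentrations surrounding the appropriate level; five concentrations were tested over 48 hours in 96-well plates. GI50 marks 50% less growth. The concentration for full growth arrest is given as TGI.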

Columns and labels:
Assay in all cases: NCI anticancer screen, dose series, 48 h
SK-MEL-2 melanoma = tested on: SK-MEL-2 melanoma
SNB-75 CNS = tested on: SNB-75 CNS
NCI-H23 lung = tested on: NCI-H23 lung
SN12C renal = tested on: SN12C renal
NCI-H226 lung = tested on: NCI-H226 lung
HCT-15 colon = tested on: HCT-15 colon
SNB-19 CNS = tested on: SNB-19 CNS
PC-3 prostate = tested on: PC-3 prostate
SW-620 colon = tested on: SW-620 colon
HCT-116 colon = tested on: HCT-116 colon

| SMILES | GI50 (SK-MEL-2 melanoma) | TGI (SK-MEL-2 melanoma) | GI50 (SNB-75 CNS) | TGI (SNB-75 CNS) | GI50 (NCI-H23 lung) | TGI (NCI-H23 lung) | GI50 (SN12C renal) | TGI (SN12C renal) | GI50 (NCI-H226 lung) | TGI (NCI-H226 lung) | GI50 (HCT-15 colon) | TGI (HCT-15 colon) | GI50 (SNB-19 CNS) | TGI (SNB-19 CNS) | GI50 (PC-3 prostate) | TGI (PC-3 prostate) | GI50 (SW-620 colon) | TGI (SW-620 colon) | GI50 (HCT-116 colon) | TGI (HCT-116 colon) |
| --- | --- | --- | --- | --- | --- | --- | --- | --- | --- | --- | --- | --- | --- | --- | --- | --- | --- | --- | --- | --- |
| CC(C)OC(=O)OCOP(=O)(OCOC(=O)OC(C)C)C1CCCN(O)C1=O (centres undefined) | 3.1 µM | 20.4 µM | 5.46 µM | > 100 µM | 8.47 µM | > 100 µM | 0.281 µM | > 100 µM | 1.36 µM | > 100 µM | 1.85 µM | > 100 µM | 1.21 µM | > 100 µM | 7.55 µM | > 100 µM | 1.37 µM | > 100 µM | 0.711 µM | > 100 µM |
| COc1ccc2c(c1)OCC1c3cc(OC)ccc3OC21 (centres undefined) | 94.3 µM | > 100 µM | 47.3 µM | > 100 µM | 36.2 µM | > 100 µM | 74.3 µM | > 100 µM | 27.3 µM | > 100 µM | 44.9 µM | > 100 µM | > 100 µM | > 100 µM | 91.2 µM | > 100 µM | > 100 µM | > 100 µM | 47.5 µM | > 100 µM |
| CC(=O)Nc1ccc(S(=O)(=O)N2C(=O)CCC2C(=O)Nc2ccccc2)cc1 (centres undefined) | 1.34 µM | 9.05 µM | 1.63 µM | 6.86 µM | 2.23 µM | 18.6 µM | 2.68 µM | 22.6 µM | 3.16 µM | 20.9 µM | 0.293 µM | 14.8 µM | 1.74 µM | 19.2 µM | 1.08 µM | 15.7 µM | 0.405 µM | 16.7 µM | 0.389 µM | 20 µM |
| Nc1c2ccccc2nc2ccccc12 | 1.74 µM and 3.87 µM | 3.41 µM and 11.4 µM | 2.46 µM and 3.11 µM | 6 µM and 10.4 µM | 1.8 µM and 3.18 µM | 5.49 µM and 15.4 µM | 1.5 µM and 2.61 µM | 12.4 µM and 10.5 µM | 1.24 µM and 2.81 µM | 3.21 µM and 8.24 µM | 1.95 µM and 2.27 µM | 11.1 µM and 7.23 µM | 1.82 µM and 3.61 µM | 12.9 µM and 20.7 µM | 2.24 µM and 3.13 µM | 9.38 µM and 15.9 µM | 1.06 µM and 3.06 µM | 5.95 µM and 22.6 µM | 0.702 µM and 2.17 µM | 8.31 µM and 10.5 µM |
| O=C(c1ccco1)c1c(C(F)(F)F)n([O-])c2cc(Cl)c(Cl)cc2[n+]1=O | 3.07 µM | 8.89 µM | 6.16 µM | 13.6 µM | 0.545 µM | 1.36 µM | 0.65 µM | 1.41 µM | 1.15 µM | 3.01 µM | 0.233 µM | 0.654 µM | 6.41 µM | 14.8 µM | 0.23 µM | 1.01 µM | 0.873 µM | 2.48 µM | 0.269 µM | 0.921 µM |
| CC(C)c1c(C(=O)Nc2ccccc2)c(-c2ccccc2)c(-c2ccc(F)cc2)n1CC[C@@H](O)C[C@@H](O)CC(=O)O | 2.24 µM | 7.49 µM | 2.09 µM | > 26.5 µM | 31 µM | > 100 µM | 7.56 µM | > 100 µM | 25.5 µM | > 100 µM | 7.69 µM | > 100 µM | 10.5 µM | > 100 µM | 7.31 µM | > 100 µM | 22.2 µM | > 100 µM | 10.1 µM | > 100 µM |
| Cc1cc(C)c(CNC(=O)c2cc(Cl)c3c(c2C)O[C@@](C)(C2CCC(N(C)C)CC2)O3)c(=O)[nH]1 (some centres undefined) | > 100 µM | > 100 µM | 15.2 µM | > 100 µM | 75.6 µM | > 100 µM | > 100 µM | > 100 µM | 93 µM | > 100 µM | > 100 µM | > 100 µM | > 100 µM | > 100 µM | 69.7 µM | > 100 µM | > 100 µM | > 100 µM | 40.3 µM | > 100 µM |
| Nc1ncnc2c1ncn2C1SC(CO)C(O)C1O (centres undefined) | 78.8 µM | > 100 µM | 16.8 µM | 46.3 µM | 35.1 µM | > 100 µM | 19.3 µM | 62.3 µM | 66.5 µM | > 100 µM | 3.81 µM | 31.8 µM | 26 µM | 82.8 µM | 3.72 µM | 33.1 µM | 17.5 µM | 77.2 µM | 13.5 µM | 50.3 µM |
| O=C(N=Nc1c(O)[nH]c2c(Cl)cc(Cl)cc12)C(=O)Nc1cccc(C(F)(F)F)c1 | – | > 100 µM | – | > 100 µM | – | > 100 µM | – | > 100 µM | – | > 100 µM | – | > 100 µM | – | > 100 µM | – | > 100 µM | – | > 100 µM | – | > 100 µM |
| CC/C(=C\c1ccc(N(C)C)cc1)c1ccncc1 | 8.51 µM | > 100 µM | 6.88 µM | 47.7 µM | 4.96 µM | > 100 µM | 5.96 µM | > 100 µM | 14.1 µM | > 100 µM | 2.82 µM | > 100 µM | 9.09 µM | > 100 µM | 10.3 µM | > 100 µM | 4.04 µM | > 100 µM | 3.89 µM | > 100 µM |
| N#CSc1c[nH]c2cccc(/C=C/C(=O)/C=C(O)/C=C/c3cccc4[nH]cc(SC#N)c34)c12 | 0.829 µM | 1.93 µM | 0.67 µM | 2.68 µM | 0.426 µM | 1.89 µM | 0.364 µM | 1.57 µM | 0.607 µM | 1.34 µM | 0.186 µM | 0.895 µM | 0.649 µM | 3.2 µM | 0.136 µM | 1.77 µM | 0.151 µM | 0.555 µM | 0.109 µM | 0.421 µM |
| N/C(=N\O)c1cn(C2OC(CO)C(O)C2O)c2ncnc(N)c12 (centres undefined) | 0.128 µM | 0.4 µM | 0.18 µM | 6.17 µM | 0.229 µM | 5.18 µM | 0.152 µM | > 36.1 µM | 0.446 µM | 49.6 µM | 0.133 µM | > 47.8 µM | 0.301 µM | > 100 µM | 0.343 µM | 5.79 µM | 0.0883 µM | – | 0.0633 µM | > 100 µM |
| CC1(C)CCC(c2ccc(Cl)cc2)=C(CN2CCN(c3ccc(C(=O)NS(=O)(=O)c4ccc(N[C@H](CCN5CCOCC5)CSc5ccccc5)c(S(=O)(=O)C(F)(F)F)c4)cc3)CC2)C1 | 1.86 µM | 4.35 µM | 2.05 µM | 4.16 µM | 1.74 µM | 3.96 µM | 1.53 µM | 3.33 µM | 1.62 µM | 3.13 µM | 2.02 µM | 4.35 µM | 2.68 µM | 9.14 µM | 1.68 µM | 4.5 µM | 1.79 µM | 3.8 µM | 1.69 µM | 3.11 µM |
| Cc1n[nH]c(C)c1-c1c(C)n[nH]c1C | 2.32 µM | 5.51 µM | 1.7 µM | 4.43 µM | 1.74 µM | 3.47 µM | 2.21 µM | 5.82 µM | 1.77 µM | 3.97 µM | 1.83 µM | 4.53 µM | 2.06 µM | 5.13 µM | 1.51 µM | 4.01 µM | 1.87 µM | 4.38 µM | 1.48 µM | 3.01 µM |
| O=C1Nc2ccc(I)cc2/C1=C/c1cc(Br)c(O)c(Br)c1 | 19.6 µM and 14.7 µM | > 25 µM and 37.5 µM | > 25 µM and 22.2 µM | > 90.3 µM | > 17 µM and 18.1 µM | > 25 µM and 55 µM | > 25 µM and 25.9 µM | > 80.8 µM | > 25 µM and 27.8 µM | > 25 µM and 81.2 µM | > 16 µM and 17.2 µM | > 65.8 µM | > 21.6 µM and 31.1 µM | > 94.3 µM | > 17.7 µM and 23.3 µM | > 74.7 µM | 24.8 µM and 22 µM | > 25 µM and 51.1 µM | > 17.2 µM and 15.2 µM | > 25 µM and 32.8 µM |
